Measured values: the NIST ThermoML archive (doi:10.1016/j.fluid.2014.06.015)
Numbers after ± are expanded uncertainties.

Legend:
[1] = 298.15 K; 101.33 kPa; Liquid; Vibrating tube method
[2] = refractive index (Na D-line) (dimensionless); conditions: 298.15 K; 101.33 kPa; Liquid; Standard Abbe refractometry

| SMILES | mass density [1] [kg/m3] | refractive index [2] |
| --- | --- | --- |
| CCC(C)(C)O [2-methylbutan-2-ol] | 804.21 ± 0.24 | 1.4026 ± 0.0005 |
| CCC(C)O (configuration not stated) [butan-2-ol] | 802.35 ± 0.13 | 1.3936 ± 0.0005 |
| OCC(O)CO [glycerol] | 1258.52 ± 0.22 | 1.4726 ± 0.0005 |
| O [water] |  | 1.3325 ± 0.0005 |
